One experiment concerns the target T1, Human PD-L1/PD-1 (Homo sapiens, UniProt Q9NZQ7).
T1 construct: made in house; host or cells: HEK293T
The experiment is described as follows: HTRF PD-1-Ig/PD-L1-His binding assay (human PD-L1). Particulars: cluster symbol; read-out: HTRF IC50 cluster. Summed up: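 Steps: truncated PD-1-Ig and PD-L1-His fusions are incubated in dPBS containing 0.1% (w/v) BSA and 0.05% (v/v) Tween-20. Detection antibodies are then added (Eu cryptate anti-Ig at 1 nM final, APC anti-His at 20 nM final), and time-resolved FRET is measured.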
(In general: TR-FRET usually uses a lanthanide donor and a delayed reading to cut background.)

Experiment [1] addresses T2, LK35.2-hPD-L1 cells / PE-labeled PD-1-Ig (Homo sapiens, UniProt Q9NZQ7).
T2 construct: expressed in transfected cells; host or cells: LK35.2 mouse B cell line
The experiment is described as follows: LK35.2-hPD-L1 cell binding high-content screening assay. Particulars: cluster symbol; cell line of CBA not given (LK35.2-hPD-L1 or 293T-hPD-L1); read-out: CBA IC50 cluster. It is filed as cell-based. An outline of the steps:
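Using overnight-cultured LK35.2-hPD-L1 mouse B cells, compound was co-incubated with phycoerythrin-tagged human PD-1-Ig (final 1 nM) at 37 °C for one hour. Unbound label was removed by triple dPBS washing prior to high-content image acquisition and analysis.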

SMILES strings stand for the structures. pIC50: −log10 of the molar value. Positions of bridges follow the written chain, without caps; N, C: chain ends. Non-standard residues stand in square brackets, D forms with d. Residues, ends and D or L forms follow the SMILES beside them. ξ: configuration not given here. Bta = N[C@@H](Cc1csc2ccccc12)C(=O)O; ξPro(4R-OH) = O=C(O)C1C[C@@H](O)CN1; Hyp = O=C(O)[C@@H]1C[C@@H](O)CN1; dNMeNle = CCCC[C@@H](NC)C(=O)O; NMeNle = CCCC[C@H](NC)C(=O)O; NMeA = CN[C@@H](C)C(=O)O; Orn = NCCC[C@H](N)C(=O)O; dDap = NC[C@@H](N)C(=O)O; Dab = NCC[C@H](N)C(=O)O; Dap = NC[C@H](N)C(=O)O; ξPip = O=C(O)C1CCCCN1; ξP = O=C(O)C1CCCN1

T2 sequence (Q9NZQ7 19-290): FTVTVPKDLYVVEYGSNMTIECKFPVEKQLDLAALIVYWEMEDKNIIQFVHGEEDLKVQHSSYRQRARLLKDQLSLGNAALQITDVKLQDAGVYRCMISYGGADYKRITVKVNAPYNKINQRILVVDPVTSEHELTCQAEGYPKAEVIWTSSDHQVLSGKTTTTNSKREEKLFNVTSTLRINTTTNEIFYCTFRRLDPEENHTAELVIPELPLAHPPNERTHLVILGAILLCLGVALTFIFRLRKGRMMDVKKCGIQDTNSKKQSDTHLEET
T1 sequence (Q9NZQ7 with tags, fused parts or gaps): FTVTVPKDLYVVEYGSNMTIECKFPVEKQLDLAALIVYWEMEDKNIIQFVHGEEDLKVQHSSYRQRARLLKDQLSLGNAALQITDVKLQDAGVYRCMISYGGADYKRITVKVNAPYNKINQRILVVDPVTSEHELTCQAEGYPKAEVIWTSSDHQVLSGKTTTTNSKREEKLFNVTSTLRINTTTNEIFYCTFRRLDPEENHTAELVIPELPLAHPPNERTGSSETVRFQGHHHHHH

In the case of `CCCC[C@@H]1C(=O)N(C)[C@H](CCCC)C(=O)N[C@@H](CN)C(=O)N[C@@H](C(=O)NCC(N)=O)CSCC(=O)N[C@@H](Cc2ccc(O)cc2)C(=O)N2CCCC2C(=O)N[C@H](CC(=O)O)C(=O)N2CCC[C@H]2C(=O)N[C@H](CN)C(=O)N[C@@H](CC(=O)O)C(=O)N2CCCC2C(=O)N[C@H](Cc2c[nH]c3ccccc23)C(=O)N[C@@H](CCN)C(=O)N[C@@H](Cc2c[nH]c3ccccc23)C(=O)N1C` (stereo partly shown) [Example 1212] ({CH2CO}-Y[ξP][dD]P[dDap]D[ξP][dW][Dab]W[dNMeNle][dNMeNle][Dap][dC]G-NH2; thioether N-14), the pIC50 – broadly, −log10 of the IC50, conventionally taken in molar units – on Human PD-L1/PD-1 was below 7.52; in experiment [1], below 7.13.
As to `CCCC[C@@H]1C(=O)N(C)[C@H](CCCC)C(=O)N[C@@H](CN)C(=O)N[C@@H](C(=O)NCC(N)=O)CSCC(=O)N[C@@H](Cc2ccc(O)cc2)C(=O)N2CCCC2C(=O)N[C@H](CC(=O)O)C(=O)N2CCC[C@H]2C(=O)N[C@H](CN)C(=O)N[C@@H](CCC(N)=O)C(=O)N2CCCC2C(=O)N[C@H](Cc2c[nH]c3ccccc23)C(=O)N[C@@H](CCN)C(=O)N[C@@H](Cc2c[nH]c3ccccc23)C(=O)N1C` (stereo partly shown) [Example 1213] ({CH2CO}-Y[ξP][dD]P[dDap]Q[ξP][dW][Dab]W[dNMeNle][dNMeNle][Dap][dC]G-NH2; thioether N-14), the pIC50 at Human PD-L1/PD-1 is 7.52 to 8.17; in experiment [1] it was 7.14 to 8.32.
For the compound `CCCC[C@@H]1C(=O)N(C)[C@H](CCCC)C(=O)N[C@@H](CCCN)C(=O)N[C@@H](C(=O)NCC(N)=O)CSCC(=O)N[C@@H](Cc2ccc(O)cc2)C(=O)N2CCCC2C(=O)N[C@H](CC(=O)O)C(=O)N2CCC[C@H]2C(=O)N[C@H](CN)C(=O)N[C@@H](CCC(=O)O)C(=O)N2CCCC2C(=O)N[C@H](Cc2c[nH]c3ccccc23)C(=O)N[C@@H](CCN)C(=O)N[C@@H](Cc2c[nH]c3ccccc23)C(=O)N1C` (stereo partly shown) [Example 1214] ({CH2CO}-Y[ξP][dD]P[dDap]E[ξP][dW][Dab]W[dNMeNle][dNMeNle][Orn][dC]G-NH2; thioether N-14), the pIC50 at Human PD-L1/PD-1 was 7.52 to 8.17; in experiment [1], 7.14 to 8.32.
In the same order, the values of `CCCC[C@@H]1C(=O)N(C)[C@H](CCCC)C(=O)N[C@@H](CCCN)C(=O)N[C@@H](C(=O)NCC(N)=O)CSCC(=O)N[C@@H](Cc2ccc(O)cc2)C(=O)N2CCCC2C(=O)N[C@H](CC(=O)O)C(=O)N2CCC[C@H]2C(=O)N[C@H](Cc2c[nH]cn2)C(=O)N[C@@H](CCC(=O)O)C(=O)N2CCCC2C(=O)N[C@H](Cc2c[nH]c3ccccc23)C(=O)N[C@@H](CCN)C(=O)N[C@@H](Cc2c[nH]c3ccccc23)C(=O)N1C` (stereo partly shown) [Example 1216] ({CH2CO}-Y[ξP][dD]P[dH]E[ξP][dW][Dab]W[dNMeNle][dNMeNle][Orn][dC]G-NH2; thioether N-14) are 7.52 to 8.17 and below 7.13.
In the same order, the values of `CCCC[C@@H]1C(=O)N(C)[C@H](CCCC)C(=O)N[C@@H](CCCNC(=N)N)C(=O)N[C@@H](C(=O)NCC(N)=O)CSCC(=O)N[C@@H](Cc2ccc(O)cc2)C(=O)N2CCCCC2C(=O)N[C@H](CCC(=O)O)C(=O)N2CCC[C@H]2C(=O)N[C@H](Cc2c[nH]cn2)C(=O)N[C@@H](CCCN)C(=O)N2C[C@H](O)CC2C(=O)N[C@H](Cc2c[nH]c3ccccc23)C(=O)N[C@@H](CO)C(=O)N[C@@H](Cc2c[nH]c3ccccc23)C(=O)N1C` (stereo partly drawn) [Example 1217] ({CH2CO}-Y[ξPip][dE]P[dH][Orn][ξPro(4R-OH)][dW]SW[dNMeNle][dNMeNle]R[dC]G-NH2; thioether N-14) are 7.52 to 8.17 and 7.14 to 8.32.
As for `CCCC[C@@H]1C(=O)N(C)[C@H](CCCC)C(=O)N[C@@H](CCCNC(=N)N)C(=O)N[C@@H](C(=O)NCC(N)=O)CSCC(=O)N[C@@H](Cc2ccc(O)cc2)C(=O)N2CCCCC2C(=O)N[C@H](CC(=O)O)C(=O)N2CCC[C@H]2C(=O)N[C@H](Cc2c[nH]cn2)C(=O)N[C@@H](CCCN)C(=O)N2C[C@H](O)CC2C(=O)N[C@H](Cc2c[nH]c3ccccc23)C(=O)N[C@@H](CO)C(=O)N[C@@H](Cc2c[nH]c3ccccc23)C(=O)N1C` (stereo partly drawn) [Example 1218] ({CH2CO}-Y[ξPip][dD]P[dH][Orn][ξPro(4R-OH)][dW]SW[dNMeNle][dNMeNle]R[dC]G-NH2; thioether N-14), the pIC50 is 7.52 to 8.17 on Human PD-L1/PD-1 and 7.14 to 8.32 in experiment [1].
Regarding `CCCC[C@@H]1C(=O)N(C)[C@H](CCCC)C(=O)N[C@@H](CCCN)C(=O)N[C@@H](C(=O)NCC(N)=O)CSCC(=O)N[C@@H](Cc2ccc(O)cc2)C(=O)N2CCCCC2C(=O)N[C@H](CC(=O)O)C(=O)N2CCC[C@H]2C(=O)N[C@H](Cc2c[nH]cn2)C(=O)N[C@@H](CCC(=O)O)C(=O)N2C[C@H](O)CC2C(=O)N[C@H](Cc2c[nH]c3ccccc23)C(=O)N[C@@H](CO)C(=O)N[C@@H](Cc2c[nH]c3ccccc23)C(=O)N1C` (stereo partly drawn) [Example 1219] ({CH2CO}-Y[ξPip][dD]P[dH]E[ξPro(4R-OH)][dW]SW[dNMeNle][dNMeNle][Orn][dC]G-NH2; thioether N-14), the pIC50 on Human PD-L1/PD-1 was 7.52 to 8.17; in experiment [1] it was 8.33 to 9.80.
In the same order, the values of `CCCC[C@@H]1C(=O)N(C)[C@H](CCCC)C(=O)N[C@@H](CCCN)C(=O)N[C@@H](C(=O)NCC(N)=O)CSCC(=O)N[C@@H](Cc2ccc(O)cc2)C(=O)N2CCNCC2C(=O)N[C@H](CC(N)=O)C(=O)N2CCC[C@H]2C(=O)N[C@H](Cc2c[nH]cn2)C(=O)N[C@@H](CC(C)C)C(=O)N2C[C@H](O)CC2C(=O)N[C@H](Cc2c[nH]c3ccccc23)C(=O)N[C@@H](CO)C(=O)N[C@@H](Cc2c[nH]c3ccccc23)C(=O)N1C` (stereo partly shown) [Example 1220] are 7.52 to 8.17 and 7.14 to 8.32.
Turning to `CC(C)C[C@@H]1NC(=O)[C@@H](Cc2c[nH]cn2)NC(=O)[C@@H]2CCCN2C(=O)[C@@H](CC(N)=O)NC(=O)C(C)N(C)C(=O)[C@H](Cc2ccc(O)cc2)NC(=O)CSC[C@H](C(=O)NCC(N)=O)NC(=O)[C@H](C)NC(=O)[C@@H](CC(=O)O)N(C)C(=O)[C@@H](CCCCN)N(C)C(=O)[C@H](Cc2c[nH]c3ccccc23)NC(=O)[C@H](CO)NC(=O)[C@@H](Cc2c[nH]c3ccccc23)NC(=O)C2C[C@@H](O)CN2C1=O` (stereo partly shown) [Example 1221], the values for the pIC50 (on Human PD-L1/PD-1; in experiment [1]) were below 7.52 and below 7.13, respectively.
The like results for `CCCC[C@H]1C(=O)N(C)[C@@H](CCCC)C(=O)N[C@@H](CN)C(=O)N[C@H](C(=O)NCC(N)=O)CSCC(=O)N[C@@H](Cc2ccc(O)cc2)C(=O)N2CCC[C@H]2C(=O)N[C@@H](CC(=O)O)C(=O)N2CCC[C@H]2C(=O)N[C@@H](CN)C(=O)N[C@@H](CC(=O)O)C(=O)N2C[C@H](O)C[C@H]2C(=O)N[C@@H](Cc2c[nH]c3ccccc23)C(=O)N[C@@H](CCN)C(=O)N[C@@H](Cc2csc3ccccc23)C(=O)N1C` [Example 1222] ({CH2CO}-YPDP[Dap]D[Hyp]W[Dab][Bta][NMeNle][NMeNle][Dap]CG-NH2; thioether N-14) were, in that order, 7.52 to 8.17 and below 7.13.
As to `CCCC[C@H]1C(=O)N(C)[C@@H](CCCC)C(=O)N[C@@H](CN)C(=O)N[C@H](C(=O)NCC(N)=O)CSCC(=O)N[C@@H](Cc2ccc(O)cc2)C(=O)N(C)[C@@H](C)C(=O)N[C@@H](CC(=O)O)C(=O)N2CCC[C@H]2C(=O)N[C@@H](CN)C(=O)N[C@@H](CCC(N)=O)C(=O)N2C[C@H](O)C[C@H]2C(=O)N[C@@H](Cc2c[nH]c3ccccc23)C(=O)N[C@@H](CCN)C(=O)N[C@@H](Cc2csc3ccccc23)C(=O)N1C` [Example 1223] ({CH2CO}-Y[NMeA]DP[Dap]Q[Hyp]W[Dab][Bta][NMeNle][NMeNle][Dap]CG-NH2; thioether N-14), the pIC50 at Human PD-L1/PD-1 was 8.17 to 9.41; in experiment [1] it was 8.33 to 9.80.
In the same order, the values of `CCCC[C@H]1C(=O)N(C)[C@@H](CCCC)C(=O)N[C@@H](CN)C(=O)N[C@H](C(=O)NCC(N)=O)CSCC(=O)N[C@@H](Cc2ccc(O)cc2)C(=O)N(C)[C@@H](C)C(=O)N[C@@H](CC(=O)O)C(=O)N2CCC[C@H]2C(=O)N[C@@H](CN)C(=O)N[C@@H](CC(=O)O)C(=O)N2C[C@H](O)C[C@H]2C(=O)N[C@@H](Cc2c[nH]c3ccccc23)C(=O)N[C@@H](CCN)C(=O)N[C@@H](Cc2csc3ccccc23)C(=O)N1C` [Example 1224] ({CH2CO}-Y[NMeA]DP[Dap]D[Hyp]W[Dab][Bta][NMeNle][NMeNle][Dap]CG-NH2; thioether N-14) are 8.17 to 9.41 and 8.33 to 9.80.
With `CCCC[C@H]1C(=O)N(C)[C@@H](CCCC)C(=O)N[C@@H](CN)C(=O)N[C@H](C(=O)NCC(N)=O)CSCC(=O)N[C@@H](Cc2ccc(O)cc2)C(=O)N(C)[C@@H](C)C(=O)N[C@@H](CC(N)=O)C(=O)N2CCC[C@H]2C(=O)N[C@@H](CN)C(=O)N[C@@H](CCC(N)=O)C(=O)N2C[C@H](O)C[C@H]2C(=O)N[C@@H](Cc2c[nH]c3ccccc23)C(=O)N[C@@H](CCN)C(=O)N[C@@H](Cc2csc3ccccc23)C(=O)N1C` [Example 1225] ({CH2CO}-Y[NMeA]NP[Dap]Q[Hyp]W[Dab][Bta][NMeNle][NMeNle][Dap]CG-NH2; thioether N-14), the pIC50 on Human PD-L1/PD-1 was 8.17 to 9.41; in experiment [1] it was 8.33 to 9.80.
Turning to `CCCC[C@H]1C(=O)N(C)[C@@H](CCCC)C(=O)N[C@@H](CN)C(=O)N[C@H](C(=O)NCC(N)=O)CSCC(=O)N[C@@H](Cc2ccc(O)cc2)C(=O)N(C)[C@@H](C)C(=O)N[C@@H](CC(N)=O)C(=O)N2CCC[C@H]2C(=O)N[C@@H](CN)C(=O)N[C@@H](CC(=O)O)C(=O)N2C[C@H](O)C[C@H]2C(=O)N[C@@H](Cc2c[nH]c3ccccc23)C(=O)N[C@@H](CCN)C(=O)N[C@@H](Cc2csc3ccccc23)C(=O)N1C` [Example 1226] ({CH2CO}-Y[NMeA]NP[Dap]D[Hyp]W[Dab][Bta][NMeNle][NMeNle][Dap]CG-NH2; thioether N-14), the pIC50 was 8.17 to 9.41 at Human PD-L1/PD-1 and 8.33 to 9.80 in experiment [1].

The record behind these values is patent US9850283B2, “Macrocyclic inhibitors of the PD-1/PD-L1 and CD80(B7-1)/PD-L1 protein/protein interactions” (BRISTOL-MYERS SQUIBB COMPANY, priority 2013, dated 2017).
